Holding throughout (type): ADME, organism-based
Data set [1] in a line: Plasma clearance in rat. As to conditions: read-out: Clp.
Data set [2] can be described thus: Volume distribution in rat. As to conditions: in vivo.
Data set [3] is described as follows: Half-life in rat. As to conditions: in vivo.
Data set [4] in a line: Oral bioavailability in rat. The following applies: in vivo.
Data set [5] can be described thus: Area under curve was determined in rat after PO administration. Set-up: concentration or dose not given beside the values. As to conditions: in vivo.

Broadly, the Vd is a proportionality between amount in the body and measured concentration, not a real space. In general, half-life refers to how long it takes for the measured level to halve. Broadly, the bioavailability is the share of a dose that reaches the circulation, judged against a reference dose that is usually intravenous. What is called AUC is the area under the concentration-time curve, a measure of exposure. As to `O=C1NCc2c(-c3ccc(F)cc3Cl)cc(C3CCN(C4CCC4)CC3)cc2N1c1c(Cl)cccc1Cl`, in data set [1], the clearance was 53.7 mL/min/kg. Besides, the distribution volume (Vd) in data set [2] came to 6.6 L/kg. Besides, the half-life in data set [3] was 1.7 h. The same compound displayed a bioavailability in data set [4] of 24.7%. This compound displayed an area under the curve (AUC) in data set [5] of 0.14 µM·h.

On to `O=C1NCc2c(-c3ccccc3Cl)cc(C3CCNCC3)cc2N1c1c(Cl)cccc1Cl`, for which the clearance in data set [1] was 181 mL/min/kg. Besides, the volume of distribution (Vd) in data set [2] is 21.4 L/kg. Further, the half-life in data set [3] was 2.5 h. The compound further yielded a bioavailability in data set [4] of 0%.

As for `CC(C1CC1)N1CCC(c2cc(-c3ccc(F)cc3Cl)c3c(c2)N(c2c(Cl)cccc2Cl)C(=O)NC3)CC1` (configuration not stated), in data set [1], the clearance amounted to 31.1 mL/min/kg. Besides, in data set [2], the Vd was 4.7 L/kg. The half-life in data set [3] is 2 h. The bioavailability in data set [4] was 38%. In data set [5], the AUC was determined as 0.36 µM·h.

For the compound `O=C1NCc2c(-c3ccc(F)cc3F)cc(C3CCNCC3)cc2N1c1c(Cl)cccc1Cl`, in data set [1], the clearance came out at 58.6 mL/min/kg. In addition, the Vd in data set [2] amounted to 13.6 L/kg. In data set [3], this compound had a half-life of 3.3 h. This compound displayed a bioavailability in data set [4] of 4.3%. The AUC in data set [5] came to 0.02 µM·h.

As to `O=C1NCc2c(-c3ccc(F)cc3Cl)cc(C3CCNCC3)cc2N1c1c(Cl)cccc1Cl`, in data set [1], the clearance stood at 72.3 mL/min/kg. In data set [2], this compound yielded a Vd of 7.8 L/kg. The half-life in data set [3] was 2 h. The bioavailability in data set [4] was found to be 0%.

Turning to `O=C(c1cc(-c2ccc(F)cc2F)c2c(c1)N(c1c(Cl)cccc1Cl)C(=O)NC2)N1CCNCC1`, in data set [1], the clearance was found to be 94.7 mL/min/kg. In data set [2], this compound returned a volume of distribution (Vd) of 12.8 L/kg. The compound also had a half-life in data set [3] of 2.3 h. Also, in data set [4], the bioavailability came to 1.5%.

On to `O=C1NCc2c(-c3ccc(F)cc3Cl)cc(C3CCN(CC4CCC4)CC3)cc2N1c1c(Cl)cccc1Cl`, for which the clearance in data set [1] was determined as 24.2 mL/min/kg. In data set [2], this compound returned a Vd of 2.5 L/kg. The compound further had a half-life in data set [3] of 1.6 h. Moreover, the bioavailability in data set [4] came to 11.6%. Further, in data set [5], the AUC was 0.14 µM·h.

On to `CC(C)(C)N1CCC(c2cc(-c3ccc(F)cc3Cl)c3c(c2)N(c2c(Cl)cccc2Cl)C(=O)NC3)CC1`, for which the clearance in data set [1] is 35.2 mL/min/kg. In data set [2], the Vd was 6 L/kg. Further, the half-life in data set [3] was 2.2 h. The compound also had a bioavailability in data set [4] of 67.7%. The compound also displayed an AUC in data set [5] of 0.58 µM·h.

For the compound `CCN1CCC(c2cc(-c3ccc(F)cc3Cl)c3c(c2)N(c2c(Cl)cccc2Cl)C(=O)NC3)CC1`, in data set [1], the clearance is 56.3 mL/min/kg. Also, in data set [2], the Vd was 7.5 L/kg. In data set [3], the half-life is 2.2 h. The same compound yielded a bioavailability in data set [4] of 20%. Moreover, the AUC in data set [5] was 0.11 µM·h.

On to `O=C1NCc2c(-c3ccc(F)cc3Cl)cc(C3CCN(CC4CC4)CC3)cc2N1c1c(Cl)cccc1Cl`, for which the clearance in data set [1] turned out to be 50.9 mL/min/kg. The Vd in data set [2] is 6.3 L/kg. This compound also had a half-life in data set [3] of 1.9 h. In data set [4], this compound returned a bioavailability of 22.6%. This compound returned an AUC in data set [5] of 0.15 µM·h.

Regarding `O=C1NCc2c(-c3ccc(F)cc3Cl)cc(CN3CCNCC3)cc2N1c1c(Cl)cccc1Cl`, the clearance in data set [1] turned out to be 140 mL/min/kg. In data set [2], this compound showed a Vd of 18.6 L/kg. For the same compound, the half-life in data set [3] is 2.8 h. The bioavailability in data set [4] came to 15.7%. In data set [5], the AUC was found to be 0.04 µM·h.

On to `O=C1NCc2c(-c3ccccc3Cl)cc(OC3CCNCC3)cc2N1c1c(Cl)cccc1Cl`, for which the clearance in data set [1] stood at 116 mL/min/kg. For the same compound, the Vd in data set [2] was 21 L/kg. Moreover, the half-life in data set [3] is 3 h. The compound also showed a bioavailability in data set [4] of 6.3%. This compound also registered an AUC in data set [5] of 0.02 µM·h.

In the case of `CC(C)N1CCC(c2cc(-c3ccc(F)cc3Cl)c3c(c2)N(c2c(Cl)cccc2Cl)C(=O)NC3)CC1`, in data set [1], the clearance was determined as 84.8 mL/min/kg. Besides, the Vd in data set [2] worked out at 12.2 L/kg. The same compound gave a half-life in data set [3] of 1.9 h. In data set [4], this compound yielded a bioavailability of 16%. For the same compound, the AUC in data set [5] was 0.06 µM·h.

For `O=C1NCc2c(-c3ccccc3Cl)cc(N3CCNCC3)cc2N1c1c(Cl)cccc1Cl`, in data set [1], the clearance was determined as 34.4 mL/min/kg. The compound also registered a Vd in data set [2] of 4.3 L/kg. Further, the half-life in data set [3] was 1.6 h. Further, the bioavailability in data set [4] was found to be 22.7%. Also, the AUC in data set [5] was 0.22 µM·h.

In the case of `CN1CCC(c2cc(-c3ccc(F)cc3Cl)c3c(c2)N(c2c(Cl)cccc2Cl)C(=O)NC3)CC1`, the clearance in data set [1] worked out at 49.8 mL/min/kg. In data set [2], this compound yielded a Vd of 5.3 L/kg. The compound further had a half-life in data set [3] of 1.5 h. This compound also showed a bioavailability in data set [4] of 9.2%. This compound also came in with an AUC in data set [5] of 0.06 µM·h.

As for `O=C1NCc2c(-c3ccc(F)cc3Cl)cc(C3CCN(C4CC4)CC3)cc2N1c1c(Cl)cccc1Cl`, the clearance in data set [1] was found to be 51.7 mL/min/kg. The compound also showed a Vd in data set [2] of 8.1 L/kg. The half-life in data set [3] is 2.5 h. Also, in data set [4], the bioavailability came to 59.3%. The AUC in data set [5] is 0.39 µM·h.

The values are drawn from ChEMBL document CHEMBL1136271, “Design and synthesis of potent, orally bioavailable dihydroquinazolinone inhibitors of p38 MAP kinase” (Bioorg Med Chem Lett, 2003).
